From patent publication US12492188B2, “1H-benzo[D]imidazole derivatives as TLR9 inhibitors for the treatment of fibrosis” (BRISTOL-MYERS SQUIBB COMPANY, priority 2020, dated 2025)
pIC50: −log10 of the molar value. Where two headings read alike, the source gives them in different places.

Columns and labels:
Type in all cases: cell-based
human TLR7 = molecular target: T1, human TLR7 (Homo sapiens, UniProt Q9NYK1); experiment: TLR7 inhibition reporter assay (HEK-Blue cells, secreted embryonic alkaline phosphatase reporter); details: HEK-Blue cells overexpressing human TLR7, stimulated with gardiquimod 7.5 μM; read-out: TLR 7 IC50
T1 construct: host or cells: HEK-Blue cells (HEK293-derived reporter line)
T1 sequence (Q9NYK1 27-1049): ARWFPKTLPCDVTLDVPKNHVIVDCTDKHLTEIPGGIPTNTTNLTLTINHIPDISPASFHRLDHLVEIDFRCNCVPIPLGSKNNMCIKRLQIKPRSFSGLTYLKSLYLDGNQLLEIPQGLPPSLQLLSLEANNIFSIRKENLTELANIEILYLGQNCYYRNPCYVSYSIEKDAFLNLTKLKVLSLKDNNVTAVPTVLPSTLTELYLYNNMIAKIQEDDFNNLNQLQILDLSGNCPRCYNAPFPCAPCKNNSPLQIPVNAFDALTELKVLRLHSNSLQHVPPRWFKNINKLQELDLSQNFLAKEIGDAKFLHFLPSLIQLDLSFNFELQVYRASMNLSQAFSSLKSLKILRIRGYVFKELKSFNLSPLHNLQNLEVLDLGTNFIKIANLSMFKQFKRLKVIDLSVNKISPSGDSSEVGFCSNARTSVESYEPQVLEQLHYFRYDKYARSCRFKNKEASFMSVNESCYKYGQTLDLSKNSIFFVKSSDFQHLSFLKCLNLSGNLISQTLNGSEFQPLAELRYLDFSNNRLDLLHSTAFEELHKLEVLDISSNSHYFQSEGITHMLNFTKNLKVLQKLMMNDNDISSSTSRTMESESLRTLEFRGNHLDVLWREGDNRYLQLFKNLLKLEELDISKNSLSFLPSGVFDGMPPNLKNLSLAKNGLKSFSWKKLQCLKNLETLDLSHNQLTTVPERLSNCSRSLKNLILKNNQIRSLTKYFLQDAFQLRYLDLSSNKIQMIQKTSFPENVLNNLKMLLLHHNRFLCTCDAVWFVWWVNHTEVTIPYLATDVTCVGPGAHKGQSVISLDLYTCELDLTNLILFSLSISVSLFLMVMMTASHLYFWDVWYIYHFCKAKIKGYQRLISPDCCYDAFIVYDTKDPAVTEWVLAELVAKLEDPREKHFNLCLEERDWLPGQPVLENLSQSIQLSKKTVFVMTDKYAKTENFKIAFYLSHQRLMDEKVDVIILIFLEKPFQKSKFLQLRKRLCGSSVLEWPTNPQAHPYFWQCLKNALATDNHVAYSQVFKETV
Summary of the method: (§1)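 Agonist-driven SEAP output was measured in HEK-Blue reporter cells carrying human TLR7 (gardiquimod 7.5 μM), TLR8 (R848 15.9 μM) or TLR9 (ODN2006 5 nM). Compounds at 0.05 nM–50 μM final were added 30 min before stimulation at room temperature. After 22 h at 37 °C, percent inhibition was taken against agonist/DMSO wells and a reference inhibitor.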

human TLR8 = molecular target: T2, human TLR8 (Homo sapiens, UniProt Q9NR97); experiment: TLR8 inhibition reporter assay (HEK-Blue cells, secreted embryonic alkaline phosphatase reporter); details: HEK-Blue cells overexpressing human TLR8, stimulated with R848 15.9 μM; read-out: TLR 8 IC50
T2 construct: host or cells: HEK-Blue cells (HEK293-derived reporter line)
T2 sequence (Q9NR97 27-1041): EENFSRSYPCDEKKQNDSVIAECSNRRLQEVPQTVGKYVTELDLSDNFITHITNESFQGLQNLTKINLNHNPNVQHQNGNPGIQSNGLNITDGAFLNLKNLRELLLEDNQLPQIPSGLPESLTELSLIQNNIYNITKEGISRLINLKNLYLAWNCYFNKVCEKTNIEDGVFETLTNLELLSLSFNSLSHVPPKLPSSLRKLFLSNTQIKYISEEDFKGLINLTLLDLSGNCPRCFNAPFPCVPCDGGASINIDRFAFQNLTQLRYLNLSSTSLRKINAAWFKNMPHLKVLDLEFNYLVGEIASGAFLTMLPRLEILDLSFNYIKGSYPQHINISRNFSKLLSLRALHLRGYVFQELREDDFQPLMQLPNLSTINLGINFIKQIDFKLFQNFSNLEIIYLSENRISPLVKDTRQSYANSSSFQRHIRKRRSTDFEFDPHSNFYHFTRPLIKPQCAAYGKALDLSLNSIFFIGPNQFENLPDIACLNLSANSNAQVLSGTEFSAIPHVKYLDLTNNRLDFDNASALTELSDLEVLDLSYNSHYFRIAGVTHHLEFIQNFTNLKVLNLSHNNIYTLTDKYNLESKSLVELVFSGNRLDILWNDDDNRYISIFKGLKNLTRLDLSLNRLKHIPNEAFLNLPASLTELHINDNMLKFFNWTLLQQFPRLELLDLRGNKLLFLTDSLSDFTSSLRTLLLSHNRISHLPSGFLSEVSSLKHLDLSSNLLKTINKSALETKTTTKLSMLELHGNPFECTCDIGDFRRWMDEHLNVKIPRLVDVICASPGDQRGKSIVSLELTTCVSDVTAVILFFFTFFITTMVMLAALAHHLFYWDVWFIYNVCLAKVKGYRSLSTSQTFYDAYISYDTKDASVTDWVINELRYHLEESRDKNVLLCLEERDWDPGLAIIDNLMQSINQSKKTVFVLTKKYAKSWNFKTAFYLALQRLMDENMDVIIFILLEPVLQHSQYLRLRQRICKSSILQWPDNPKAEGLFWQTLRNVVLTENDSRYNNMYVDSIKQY
Summary of the method: as §1

human TLR9 = molecular target: T3, human TLR9 (Homo sapiens, UniProt Q9NR96); experiment: TLR9 inhibition reporter assay (HEK-Blue cells, secreted embryonic alkaline phosphatase reporter)
T3 construct: host or cells: HEK-Blue cells (HEK293-derived reporter line)
T3 sequence (Q9NR96 26-1032): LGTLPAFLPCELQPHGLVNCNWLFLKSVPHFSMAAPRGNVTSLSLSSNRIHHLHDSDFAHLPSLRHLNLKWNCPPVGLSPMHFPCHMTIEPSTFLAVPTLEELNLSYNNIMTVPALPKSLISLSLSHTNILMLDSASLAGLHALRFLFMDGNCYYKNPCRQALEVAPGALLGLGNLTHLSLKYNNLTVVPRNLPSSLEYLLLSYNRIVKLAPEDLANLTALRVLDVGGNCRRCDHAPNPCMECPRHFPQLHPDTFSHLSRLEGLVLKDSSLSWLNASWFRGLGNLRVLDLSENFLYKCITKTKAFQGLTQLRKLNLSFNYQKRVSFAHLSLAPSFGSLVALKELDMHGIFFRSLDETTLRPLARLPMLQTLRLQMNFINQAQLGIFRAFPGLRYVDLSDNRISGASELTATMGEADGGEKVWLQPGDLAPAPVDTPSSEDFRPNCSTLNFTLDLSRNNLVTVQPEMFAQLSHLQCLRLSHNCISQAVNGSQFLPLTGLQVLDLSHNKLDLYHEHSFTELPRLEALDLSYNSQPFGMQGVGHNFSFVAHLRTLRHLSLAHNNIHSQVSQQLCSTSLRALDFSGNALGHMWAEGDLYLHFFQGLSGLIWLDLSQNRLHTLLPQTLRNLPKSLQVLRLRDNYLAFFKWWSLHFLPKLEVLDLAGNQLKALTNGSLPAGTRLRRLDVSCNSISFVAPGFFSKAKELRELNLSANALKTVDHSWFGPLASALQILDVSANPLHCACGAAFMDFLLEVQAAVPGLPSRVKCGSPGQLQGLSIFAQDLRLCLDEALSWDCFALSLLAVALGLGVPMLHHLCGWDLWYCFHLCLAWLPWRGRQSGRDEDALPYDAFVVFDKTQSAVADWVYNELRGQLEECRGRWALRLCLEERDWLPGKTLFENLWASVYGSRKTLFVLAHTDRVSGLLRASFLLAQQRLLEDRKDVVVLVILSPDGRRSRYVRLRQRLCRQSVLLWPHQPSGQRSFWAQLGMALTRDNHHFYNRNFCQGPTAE
Summary of the method: as §1

[1] = HEK-Blue cells overexpressing human TLR9, stimulated with ODN2006 5 nM, 22 hour incubation, reporter readout
[2] = HEK-Blue cells overexpressing human TLR9, stimulated with ODN2006 5 nM, read-out: TLR 9 IC50

SMILES	pIC50 (human TLR7)	pIC50 (human TLR8)	pIC50 (human TLR9; [1])	pIC50 (human TLR9; [2])	pIC50 (human TLR9)	pIC50 (human TLR9; HEK-Blue human TLR9 reporter cells)
Cc1cc(C2CCN(C3CC4CCC(C3)N4C3CCOCC3)CC2)cc2c1nc(-c1ccc(S(C)(=O)=O)cc1)n2C (single isomer, unassigned) [Example 160, 1,4-dimethyl-2-(4-(methylsulfonyl)phenyl)-6-(1-(8-(tetrahydro-2H-pyran-4-yl)-8-azabicyclo[3.2.1]octan-3-yl)piperidin-4-yl)-1H-benzo[d]imidazole]	4.63	< 4.60	–	7.28	7.28	–
CC(C)N1C2CCC1CC(N1CCC(c3cc4nc(-c5ccc(S(C)(=O)=O)cc5)n(C)c4cc3F)CC1)C2 (single isomer, unassigned) [Example 100, 6-fluoro-5-(1-(8-isopropyl-8-azabicyclo[3.2.1]octan-3-yl)piperidin-4-yl)-1-methyl-2-(4-(methylsulfonyl)phenyl)-1H-benzo[d]imidazole]	4.40	< 4.30	7.21	–	–	–
CC(C)N1CCC(N2CCC(c3cc(F)c4c(c3)nc(-c3ccc(S(C)(=O)=O)cc3)n4C)CC2)CC1 [Example 91, 7-fluoro-5-(1′-isopropyl-[1,4′-bipiperidin]-4-yl)-1-methyl-2-(4-(methylsulfonyl)phenyl)-1H-benzo[d]imidazole]	4.71	< 4.30	7.00	6.98	–	–
COc1ccc(-c2nc3ccc(C4CCN(C5CCN(C(C)C)CC5)CC4)cc3n2C(C)C)cc1OC [Example 3, 2-(3,4-dimethoxyphenyl)-1-isopropyl-6-(1′-isopropyl-[1,4′-bipiperidin]-4-yl)-1H-benzo[d]imidazole]	6.55	< 4.30	6.77	6.77	–	–
Cn1c(-c2ccc(S(C)(=O)=O)cc2)nc2cc(C3CCN(C4CC5CCC(C4)N5CC4CC4)CC3)cc(F)c21 (stereo not shown) [Example 217, 5-(1-(8-(cyclopropylmethyl)-8-azabicyclo[3.2.1]octan-3-yl)piperidin-4-yl)-7-fluoro-1-methyl-2-(4-(methylsulfonyl)phenyl)-1H-benzo[d]imidazole]	4.89	< 4.30	–	6.90	6.89	–

Second part, the compound after the results:

pIC50 (human TLR7)	pIC50 (human TLR8)	pIC50 (human TLR9; [1])	pIC50 (human TLR9; [2])	pIC50 (human TLR9)	pIC50 (human TLR9; HEK-Blue human TLR9 reporter cells)	SMILES
6.10	5.30	7.34	7.34	–	–	Cc1cc(-c2cccc(CN3CCC(N4CCCC4)CC3)c2)cc2c1nc(-c1ccc(S(C)(=O)=O)cc1)n2C1CC1 [Example 407, 1-cyclopropyl-4-methyl-2-(4-(methylsulfonyl)phenyl)-6-(3-((4-(pyrrolidin-1-yl)piperidin-1-yl)methyl)phenyl)-1H-benzo[d]imidazole]
4.50	< 4.30	–	6.98	–	6.96	Cn1c(-c2ccc(S(C)(=O)=O)cc2)nc2c(F)cc(C3CCN(C4CC5CCC(C4)N5C4CCOCC4)CC3)cc21 (single isomer, unassigned) [Example 288, 4-fluoro-1-methyl-2-(4-(methylsulfonyl)phenyl)-6-(1-(8-(tetrahydro-2H-pyran-4-yl)-8-azabicyclo[3.2.1]octan-3-yl)piperidin-4-yl)-1H-benzo[d]imidazole]
5.80	6.05	6.85	6.87	–	–	CS(=O)(=O)c1ccc(-c2nc3c(F)cc(-c4ccc(CN5CCC(N6CCCC6)CC5)cc4)cc3n2C2CC2)cc1 [Example 408, 1-cyclopropyl-4-fluoro-2-(4-(methylsulfonyl)phenyl)-6-(4-((4-(pyrrolidin-1-yl)piperidin-1-yl)methyl)phenyl)-1H-benzo[d]imidazole]
5.68	4.93	6.74	6.75	–	–	Cc1cc(-c2cc(F)c(CN3CCC(N4CCCC4)CC3)c(F)c2)cc2c1nc(-c1ccc(S(C)(=O)=O)cc1)n2C [Example 391, 6-(3,5-difluoro-4-((4-(pyrrolidin-1-yl)piperidin-1-yl)methyl)phenyl)-1,4-dimethyl-2-(4-(methylsulfonyl)phenyl)-1H-benzo[d]imidazole]
4.67	< 4.30	–	6.18	6.18	–	Cn1c(-c2ccc(S(C)(=O)=O)cc2)nc2ccc(C3CCN(C4CCN(C5CC5)CC4)CC3)c(F)c21 [Example 260, 6-(1′-cyclopropyl-[1,4′-bipiperidin]-4-yl)-7-fluoro-1-methyl-2-(4-(methylsulfonyl)phenyl)-1H-benzo[d]imidazole]
7.00	5.14	7.16	7.16	–	–	Cc1cc(-c2ccc(CN3CC4(C3)CN(C(C)C)C4)c(F)c2)cc2c1nc(-c1ccc(S(C)(=O)=O)cc1)n2C [Example 404, 6-(3-fluoro-4-((6-isopropyl-2,6-diazaspiro[3.3]heptan-2-yl)methyl)phenyl)-1,4-dimethyl-2-(4-(methylsulfonyl)phenyl)-1H-benzo[d]imidazole]
